Literature values in patent publication US10543277B2, “Formulation of curcumin with enhanced bioavailability of curcumin and method of preparation and treatment thereof” (ARJUNA NATURAL PRIVATE LIMITED, priority 2005, dated 2020).

What was measured:
[1] = system: OPLs
[2] = system: oral premalignancy; conditions: for responded to maintenance therapy or continued to have stable lesions / subjects who responded to maintenance therapy or continued to have stable lesions: maintenance phase; for subjects who responded to maintenance therapy or continued to have stable lesions: 53 evaluable
[3] = system: LOX (lipoxygenase) pathway; conditions: 10 μM
[4] = system: COX pathway; conditions: 10 μM
[5] = among the 24 13-cRA subjects, 1-2 mg/kg/day for three months

Row | inhibition of conversion of arachidonic acid to 5-hydroxyeicosatetraenoic acid [3] | inhibition of conversion of arachidonic acid to 8-hydroxyeicosatetraenoic acid [3] | SMILES | subjects with complete responses [1, 5] | subjects with partial responses [1, 5] | relapse after end of therapy ([1]; in vivo) | subjects with intolerable conjunctivitis and hypertriglyceridemia ([1]; receiving 2 mg/kg) | rate of response at the conclusion of induction ([2]; high-dose induction therapy) | rate of stable disease at the conclusion of induction ([2]; high-dose induction therapy) | responded to maintenance therapy or continued to have stable lesions [2] | subjects who responded to maintenance therapy or continued to have stable lesions [2] | inhibition of metabolism of arachidonic acid to PGD2 [4] | inhibition of metabolism of arachidonic acid to PGE2 [4] | inhibition of metabolism of arachidonic acid to PGF2α [4]
1 |  |  | CC1=C(/C=C/C(C)=C/C=C/C(C)=C\C(=O)O)C(C)(C)CCC1 [13-cRA, 13-cis-retinoic acid] | 2 | 14 | 2-3 months | 2 | 55% | 35% | 92% | 22 |  |  | 
2 | 60% | 51% | COc1cc(/C=C/C(=O)CC(=O)/C=C/c2ccc(O)c(OC)c2)ccc1O [Curcumin, 1,7-bis(4-hydroxy-3-methoxyphenyl)-1,6-heptadiene-3,5-dione] |  |  |  |  |  |  |  |  | 73% | 70% | 64%
3 |  |  | CC1=C(/C=C/C(C)=C/C=C/C(C)=C/C=C/C=C(C)/C=C/C=C(C)/C=C/C2=C(C)CCCC2(C)C)C(C)(C)CCC1 [β-carotene] |  |  |  |  |  |  | 45% | 13 |  |  | 
